US11834450B2, “Compounds having ((3-nitrophenyl)sulfonyl)acetamide as BCL-2 inhibitors” (Eil Therapeutics, Inc., priority 2021, dated 2023)

Columns and labels:
[1] = target: T1, BCL-2 (Homo sapiens, UniProt P10415); test: BCL-2 TR-FRET Assay (primary PPI inhibition); assay type: binding; conditions: 60 min incubation; read-out: BCL2 (IC50 code, BCL-2 TR-FRET)
T1 construct: purchased BPS Bioscience #50222

[2] = target: T2, BCL-XL (Homo sapiens, UniProt Q07817); test: BCL-XL TR-FRET Assay (primary PPI inhibition); assay type: binding; conditions: 60 min incubation; read-out: BCLxL (IC50 code, BCL-XL TR-FRET)
T2 construct: purchased BPS Bioscience #50223
T2 sequence (Q07817 whole entry): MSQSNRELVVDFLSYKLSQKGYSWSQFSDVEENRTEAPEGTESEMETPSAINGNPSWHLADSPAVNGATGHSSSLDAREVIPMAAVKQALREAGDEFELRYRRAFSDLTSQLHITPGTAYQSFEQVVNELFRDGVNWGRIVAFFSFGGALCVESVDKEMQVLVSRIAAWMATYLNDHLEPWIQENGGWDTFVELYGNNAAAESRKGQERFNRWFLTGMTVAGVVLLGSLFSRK
Method in brief: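 TR-FRET readout (ex 340 nm; em 620/665 nm; 60 μs delay, 500 μs integration) after a 60 min incubation. Mix: compound, 10.5 ng BCL-XL, BCL-XL peptide ligand at 1:80, plus anti-His Tb donor and dye acceptor each at 1:100.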

[3] = tested on: RS4-11 cells; test: Cell viability assay RS4-11 (CellTiter-Glo); assay type: cell-based; conditions: Homo sapiens, 72 h; RS4-11 cells, 3 days, CellTiter-Glo; read-out: RS4-11 (CC50 code)
Method in brief: (§1)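 Cells were seeded at 2000/well (HEK293, in DMEM, pre-incubated a day) or 4000/well (other lines, in RPMI-1640). Serially diluted compound was added and plates incubated 3 days at 37 °C, with viability read by CellTiter-Glo luminescence.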

[4] = tested on: MOLT-4 cells; test: Cell viability assay MOLT-4 (CellTiter-Glo); assay type: cell-based; conditions: Homo sapiens, 72 h; MOLT-4 cells, 3 days, CellTiter-Glo; read-out: MOLT-4 (CC50 code)
Method in brief: as §1

[5] = Cell viability assay HEK293 (CellTiter-Glo); assay type: cell-based; conditions: human, HEK293 cells, read-out: HEK293 (CC50 code)
Method in brief: as §1

[6] = tested on: caspase-3 and -7 activities in RS4-11 cells; test: Cas-3/7 activation (Caspase-Glo 3/7) in RS4-11 cells; assay type: cell-based; conditions: Homo sapiens, 3.5 h at 37° C. and 30 min at r.t., read-out: Cas-3/7 (EC50 code)
Method in brief: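 RS4-11 cells were exposed to graded compound concentrations for 3.5 h at 37° C/5% CO2, then 30 min at room temperature. Caspase-3/7 activity was measured by luminescence after 30 min with a DEVD luminogenic substrate reagent.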

T1 sequence (P10415 whole entry): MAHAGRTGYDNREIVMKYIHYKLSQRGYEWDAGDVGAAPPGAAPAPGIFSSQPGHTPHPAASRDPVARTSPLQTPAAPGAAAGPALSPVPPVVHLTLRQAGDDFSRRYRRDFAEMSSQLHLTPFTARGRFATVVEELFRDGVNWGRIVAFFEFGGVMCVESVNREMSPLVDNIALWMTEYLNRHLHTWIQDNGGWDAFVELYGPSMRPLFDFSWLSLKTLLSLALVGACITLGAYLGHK

Structure (SMILES)	IC50 [1] [nM]	IC50 [2] [nM]	EC50 [6] [nM]	CC50 [3] [nM]	CC50 [4] [µM]	CC50 at 3 days [5] [µM]
CC1=CC[C@@H](CN2CCN(c3ccc(C(=O)NS(=O)(=O)c4ccc(NCC5CCOCC5)c([N+](=O)[O-])c4)c(Oc4cnc5[nH]ccc5c4)c3)CC2)[C@H](c2ccc(Cl)cc2)C1 [Compound 54, 4-[4-[[(1R,6R)-6-(4-chlorophenyl)-4-methyl-cyclohex-3-en-1-yl]methyl]piperazin-1-yl]-N-[3-nitro-4-(tetrahydropyran-4-ylmethylamino)phenyl]sulfonyl-2-(1H-pyrrolo[2,3-b]pyridin-5-yloxy)benzamide]	10 to 50	2000 to 4000	100 to 250	100 to 200	2 to 10	10 to 25
CC(C)C(=O)N1Cc2cc(Cl)ccc2C[C@H]1CN1CCN(c2ccc(C(=O)NS(=O)(=O)c3ccc(NCC4CCOCC4)c([N+](=O)[O-])c3)c(Oc3cnc4[nH]ccc4c3)c2)CC1 [Compound 57, 4-[4-[[(3S)-7-chloro-2-(2-methylpropanoyl)-3,4-dihydro-1H-isoquinolin-3-yl]methyl]piperazin-1-yl]-N-[3-nitro-4-(tetrahydropyran-4-ylmethylamino)phenyl]sulfonyl-2-(1H-pyrrolo[2,3-b]pyridin-5-yloxy)benzamide]	> 50	> 4000	> 250	> 200	2 to 10	10 to 25
CC(C)C(=O)N1C[C@@H](CN2CCN(c3ccc(C(=O)NS(=O)(=O)c4ccc(NCC5CCOCC5)c([N+](=O)[O-])c4)c(Oc4cnc5[nH]ccc5c4)c3)CC2)[C@H](c2ccc(Cl)cc2)C1 [Compound 58, 4-[4-[[(3R,4R)-4-(4-chlorophenyl)-1-(2-methylpropanoyl)pyrrolidin-3-yl]methyl]piperazin-1-yl]-N-[3-nitro-4-(tetrahydropyran-4-ylmethylamino)phenyl]sulfonyl-2-(1H-pyrrolo[2,3-b]pyridin-5-yloxy)benzamide]	10 to 50	> 4000	> 250	> 200	2 to 10	> 25
O=C(NS(=O)(=O)c1ccc(NCC2CCOCC2)c([N+](=O)[O-])c1)c1ccc(N2CCN(C[C@H]3Cc4ccccc4CN3C(=O)c3ccsc3)CC2)cc1Oc1cnc2[nH]ccc2c1 [Compound 59, N-[3-nitro-4-(tetrahydropyran-4-ylmethylamino)phenyl]sulfonyl-2-(1H-pyrrolo[2,3-b]pyridin-5-yloxy)-4-[4-[[(3R)-2-(thiophene-3-carbonyl)-3,4-dihydro-1H-isoquinolin-3-yl]methyl]piperazin-1-yl]benzamide]	10 to 50	2000 to 4000	> 250	> 200	2 to 10	> 25
CN1C(=O)CC[C@H](CN2CCN(c3ccc(C(=O)NS(=O)(=O)c4ccc(NCC5CCOCC5)c([N+](=O)[O-])c4)c(Oc4cnc5[nH]ccc5c4)c3)CC2)[C@H]1c1ccc(Cl)cc1 [Compound 72, 4-[4-[[(2S,3R)-2-(4-chlorophenyl)-1-methyl-6-oxo-3-piperidyl]methyl]piperazin-1-yl]-N-[3-nitro-4-(tetrahydropyran-4-ylmethylamino)phenyl]sulfonyl-2-(1H-pyrrolo[2,3-b]pyridin-5-yloxy)benzamide]	> 50	≤ 2000	> 250	> 200	> 10	> 25

Continued, in another order:

IC50 [1] [nM]	IC50 [2] [nM]	EC50 [6] [nM]	Structure (SMILES)	CC50 [3] [nM]	CC50 [4] [µM]	CC50 at 3 days [5] [µM]
5 to 10	≤ 2000	≤ 100	CC1(O)CC[C@@H](CN2CCN(c3ccc(C(=O)NS(=O)(=O)c4ccc(NCC5CCOCC5)c([N+](=O)[O-])c4)c(Oc4cnc5[nH]ccc5c4)c3)CC2)[C@H](c2ccc(Cl)cc2)C1 (stereo partly drawn) [Compound 52, 4-[4-[[(1R,2R)-2-(4-chlorophenyl)-4-hydroxy-4-methyl-cyclohexyl]methyl]piperazin-1-yl]-N-[3-nitro-4-(tetrahydropyran-4-ylmethylamino)phenyl]sulfonyl-2-(1H-pyrrolo[2,3-b]pyridin-5-yloxy)benzamide]	< 100	2 to 10	10 to 25
> 50	> 4000	> 250	CC1=CC[C@@H]2C[C@H]1[C@H](c1ccc(Cl)cc1)N(CC1CCN(c3ccc(C(=O)NS(=O)(=O)c4ccc(NCC5CCOCC5)c([N+](=O)[O-])c4)c(Oc4cnc5[nH]ccc5c4)c3)CC1)C2 [Compound 55, 4-[4-[[(1R,4R, 5R)-4-(4-chlorophenyl)-6-methyl-3-azabicyclo[3.3.1]non-6-en-3-yl]methyl]-1-piperidyl]-N-[3-nitro-4-(tetrahydropyran-4-ylmethylamino)phenyl]sulfonyl-2-(1H-pyrrolo[2,3-b]pyridin-5-yloxy)benzamide]	> 200	2 to 10	> 25
10 to 50	2000 to 4000	> 250	O=C(NS(=O)(=O)c1ccc(NCC2CCOCC2)c([N+](=O)[O-])c1)c1ccc(N2CCC(CN3C(=O)C4(CCNCC4)C3c3ccc(Cl)cc3)CC2)cc1Oc1cnc2[nH]ccc2c1 (stereo not drawn) [Compound 56, 4-[4-[[1-(4-chlorophenyl)-3-oxo-2,7-diazaspiro[3.5]nonan-2-yl]methyl]-1-piperidyl]-N-[3-nitro-4-(tetrahydropyran-4-ylmethylamino)phenyl]sulfonyl-2-(1H-pyrrolo[2,3-b]pyridin-5-yloxy)benzamide]	> 200	> 10	> 25
> 50	≤ 2000	> 250	COCCNc1ccc(S(=O)(=O)NC(=O)c2ccc(N3CCC(CN4CCCCC4c4ccc(Cl)cc4)CC3)cc2Oc2cnc3[nH]ccc3c2)cc1[N+](=O)[O-] (stereo not drawn) [Compound 61, 4-[4-[[2-(4-chlorophenyl)-1-piperidyl]methyl]-1-piperidyl]-N-[4-(2-methoxyethylamino)-3-nitro-phenyl]sulfonyl-2-(1H-pyrrolo[2,3-b]pyridin-5-yloxy)benzamide]	100 to 200	2 to 10	> 25
> 50	2000 to 4000	> 250	O=C(NS(=O)(=O)c1ccc(NC2CCOC2)c([N+](=O)[O-])c1)c1ccc(N2CCC(CN3CCCCC3c3ccc(Cl)cc3)CC2)cc1Oc1cnc2[nH]ccc2c1 (stereo not drawn) [Compound 63, 4-[4-[[2-(4-chlorophenyl)-1-piperidyl]methyl]-1-piperidyl]-N-[3-nitro-4-(tetrahydrofuran-3-ylamino)phenyl]sulfonyl-2-(1H-pyrrolo[2,3-b]pyridin-5-yloxy)benzamide]	> 200	2 to 10	> 25
> 50	≤ 2000	> 250	CC1=C(C)C[C@H](c2ccc(Cl)cc2)[C@@H](CN2CCN(c3ccc(C(=O)NS(=O)(=O)c4ccc(NCC5CCOCC5)c([N+](=O)[O-])c4)c(Oc4cnc5[nH]ccc5c4)c3)CC2)C1 [Compound 75, 4-[4-[[(1S,6S)-6-(4-chlorophenyl)-3,4-dimethyl-cyclohex-3-en-1-yl]methyl]piperazin-1-yl]-N-[3-nitro-4-(tetrahydropyran-4-ylmethylamino)phenyl]sulfonyl-2-(1H-pyrrolo[2,3-b]pyridin-5-yloxy)benzamide]	> 200	2 to 10	> 25
